Assay results as given in patent US20080227763A1, “Topical hormonal composition with systemic action” (LABORATOIRE THERAMEX, priority 1998, published 2008).
Like-named read-outs stand apart in the source and are kept apart here.

Assays:
[1] = Solubility of nomegestrol acetate in solvent mixtures; assay type: physicochemical; conditions: ethanol/water/propyleneglycol ternary mixture, aqueous with cosolvent or surfactant or cyclodextrin, read-out: Solubilities
Protocol: The effect of a ternary mixture of solvents, ethanol/water (45:55)/propyleneglycol on the solubility of nomegestrol acetate was determined.
We also examined the possibility of lowering the proportion of alcohol in the solvent, by means of this ternary mixture, while maintaining similar solubility; for this we choose the influence of propyleneglycol on solubility in ethanol/water systems (40:60 and 30:70).

breast pain = test: Clinical example No. 3: breast pain in premenopausal women treated with gel on both breasts; assay type: in vivo; conditions: 55 women, 4 mg/day as gel on both breasts
Protocol: In these examples, clinical trials were carried out on women, with the gel containing 0.11% of nomegestrol acetate, whose formulation is given in Table 1 of example I. […], who had been suffering from breast pains for more than 3 months and for at least 7 days per cycle, were treated for an average time of 130 days with 4 mg of nomegestrol acetate applied each day, on the last 15 days of the menstrual cycle, in the form of a gel on both breasts. Efficacy was assessed after 3 months and at the end of treatment using a visual analogue scale for quantifying breast pain.

[2] = Solubility of nomegestrol acetate in solvent mixtures; assay type: physicochemical
[3] = Clinical example No. 1: plasma nomegestrol acetate after gel applied daily to both breasts; assay type: in vivo, women
Protocol: In these examples, clinical trials were carried out on women, with the gel containing 0.11% of nomegestrol acetate, whose formulation is given in Table 1 of example I.
Twenty-four volunteers, women in good health and in the period of ovarian activity, with average age of 23.5 years, were treated on 15 consecutive days with 4 mg of nomegestrol acetate in a gel applied every day to both breasts.
Repeated blood samples were taken in the hours following the first and last administration, on 9 occasions (6 times before application of the gel and 3 times 3 hours afterwards), between the 2nd and the 14th day of treatment. The plasma of these samples was analysed for nomegestrol acetate by liquid chromatography combined with mass spectrometry.

[4] = after the last administration (15 consecutive days)
[5] = first day of treatment, 4 mg nomegestrol acetate in 0.11% gel on both breasts

## CC(=O)O[C@]1(C(C)=O)CC[C@H]2[C@@H]3C=C(C)C4=CC(=O)CC[C@@H]4[C@H]3CC[C@@]21C [nomegestrol acetate]
[1]; System I (Ethanol 95° 30%/Demineralized water 70%), 2% propyleneglycol
  solubility: 600 µg/mL
[1]; System II (Ethanol 95° 40%/Demineralized water 60%), 2% propyleneglycol
  solubility: 2600 µg/mL
[1]; System II (Ethanol 95° 40%/Demineralized water 60%), 6% propyleneglycol
  solubility: 3000 µg/mL
[1]; System II (Ethanol 95° 40%/Demineralized water 60%), 12% propyleneglycol
  solubility: 3400 µg/mL
[1]; System III (Ethanol 95° 45%/Demineralized water 55%), 8% propyleneglycol
  solubility: 7700 µg/mL
[1]; System III (Ethanol 95° 45%/Demineralized water 55%), 12% propyleneglycol
  solubility: 7700 µg/mL
Breast pain
  nomegestrol acetate in the blood (m±sd): 0.44 ± 0.30 ng/mL
[2]; 95° ethanol/water binary mixture, aqueous with cosolvent or surfactant or cyclodextrin, 95° ethanol/water binary mixture, 10% 95° ethanol, read-out: Solubility of nomegestrol acetate
  solubility: 70 µg/mL
[2]; 95° ethanol/water binary mixture, aqueous with cosolvent or surfactant or cyclodextrin, 95° ethanol/water binary mixture, 20% 95° ethanol, read-out: Solubility of nomegestrol acetate
  solubility: 113 µg/mL
[2]; 95° ethanol/water binary mixture, aqueous with cosolvent or surfactant or cyclodextrin, 95° ethanol/water binary mixture, 30% 95° ethanol, read-out: Solubility of nomegestrol acetate
  solubility: 683 µg/mL
[2]; 95° ethanol/water binary mixture, aqueous with cosolvent or surfactant or cyclodextrin, 95° ethanol/water binary mixture, 40% 95° ethanol, read-out: Solubility of nomegestrol acetate
  solubility: 2820 µg/mL
[2]; 95° ethanol/water binary mixture, aqueous with cosolvent or surfactant or cyclodextrin, 95° ethanol/water binary mixture, 50% 95° ethanol, read-out: Solubility of nomegestrol acetate
  solubility: 7330 µg/mL
[2]; 95° ethanol/water binary mixture, aqueous with cosolvent or surfactant or cyclodextrin, 95° ethanol/water binary mixture, 60% 95° ethanol, read-out: Solubility of nomegestrol acetate
  solubility: 17800 µg/mL
[2]; 95° ethanol/water binary mixture, aqueous with cosolvent or surfactant or cyclodextrin, 95° ethanol/water binary mixture, 70% 95° ethanol, read-out: Solubility of nomegestrol acetate
  solubility: 24800 µg/mL
[2]; 95° ethanol/water binary mixture, aqueous with cosolvent or surfactant or cyclodextrin, 95° ethanol/water binary mixture, 80% 95° ethanol, read-out: Solubility of nomegestrol acetate
  solubility: 29500 µg/mL
[2]; 95° ethanol/water binary mixture, aqueous with cosolvent or surfactant or cyclodextrin, 95° ethanol/water binary mixture, 90% 95° ethanol, read-out: Solubility of nomegestrol acetate
  solubility: 26600 µg/mL
[2]; 95° ethanol/water binary mixture, organic solvent or mixture, 95° ethanol/water binary mixture, 100% 95° ethanol, read-out: Solubility of nomegestrol acetate
  solubility: 32800 µg/mL
[2]; 95° ethanol/water binary mixture, water, 95° ethanol/water binary mixture, 0% 95° ethanol, read-out: Solubility of nomegestrol acetate
  solubility: 56 µg/mL
[2]; aqueous-alcoholic solvent mixture, aqueous with cosolvent or surfactant or cyclodextrin, aqueous-alcoholic mixture, 0% propyleneglycol, 3% Solketal, read-out: Solubility of nomegestrol acetate
  solubility: 6700 µg/mL
[2]; aqueous-alcoholic solvent mixture, aqueous with cosolvent or surfactant or cyclodextrin, aqueous-alcoholic mixture, 0% propyleneglycol, 3% Vitamin E TPGS, read-out: Solubility of nomegestrol acetate
  solubility: 7650 µg/mL
[2]; aqueous-alcoholic solvent mixture, aqueous with cosolvent or surfactant or cyclodextrin, aqueous-alcoholic mixture, 0% propyleneglycol, 8% Solketal, read-out: Solubility of nomegestrol acetate
  solubility: 8600 µg/mL
[2]; aqueous-alcoholic solvent mixture, aqueous with cosolvent or surfactant or cyclodextrin, aqueous-alcoholic mixture, 0% propyleneglycol, 8% Transcutol®, read-out: Solubility of nomegestrol acetate
  solubility: 10700 µg/mL
[2]; aqueous-alcoholic solvent mixture, aqueous with cosolvent or surfactant or cyclodextrin, aqueous-alcoholic mixture, 0% propyleneglycol, 8% Vitamin E TPGS, read-out: Solubility of nomegestrol acetate
  solubility: 11100 µg/mL
[2]; aqueous-alcoholic solvent mixture, aqueous with cosolvent or surfactant or cyclodextrin, aqueous-alcoholic mixture, 3% propyleneglycol, 8% Transcutol®, read-out: Solubility of nomegestrol acetate
  solubility: 10600 µg/mL
[2]; aqueous-alcoholic solvent mixture, aqueous with cosolvent or surfactant or cyclodextrin, aqueous-alcoholic mixture, 8% propyleneglycol, 0% Solketal, read-out: Solubility of nomegestrol acetate
  solubility: 7700 µg/mL
[2]; aqueous-alcoholic solvent mixture, aqueous with cosolvent or surfactant or cyclodextrin, aqueous-alcoholic mixture, 8% propyleneglycol, 0% Transcutol®, read-out: Solubility of nomegestrol acetate
  solubility: 7700 µg/mL
[2]; aqueous-alcoholic solvent mixture, aqueous with cosolvent or surfactant or cyclodextrin, aqueous-alcoholic mixture, 8% propyleneglycol, 0% Vitamin E TPGS, read-out: Solubility of nomegestrol acetate
  solubility: 7700 µg/mL
[2]; aqueous-alcoholic solvent mixture, aqueous with cosolvent or surfactant or cyclodextrin, aqueous-alcoholic mixture, 8% propyleneglycol, 3% Solketal, read-out: Solubility of nomegestrol acetate
  solubility: 10700 µg/mL
[2]; aqueous-alcoholic solvent mixture, aqueous with cosolvent or surfactant or cyclodextrin, aqueous-alcoholic mixture, 8% propyleneglycol, 3% Transcutol®, read-out: Solubility of nomegestrol acetate
  solubility: 7950 µg/mL
[2]; aqueous-alcoholic solvent mixture, aqueous with cosolvent or surfactant or cyclodextrin, aqueous-alcoholic mixture, 8% propyleneglycol, 3% Vitamin E TPGS, read-out: Solubility of nomegestrol acetate
  solubility: 12500 µg/mL
[2]; ethanol/water/Labrasol solvent mixture with propyleneglycol, aqueous with cosolvent or surfactant or cyclodextrin, System Ethanol 95° 45%/Water 50%/Labrasol® 5%, 10% propyleneglycol, read-out: Solubility of l'nomegestrol acetate
  solubility: 9500 µg/mL
[2]; ethanol/water/Labrasol solvent mixture with propyleneglycol, aqueous with cosolvent or surfactant or cyclodextrin, System Ethanol 95° 45%/Water 50%/Labrasol® 5%, 15% propyleneglycol, read-out: Solubility of l'nomegestrol acetate
  solubility: 10200 µg/mL
[2]; ethanol/water/Labrasol solvent mixture, aqueous with cosolvent or surfactant or cyclodextrin, System Ethanol 95° 45%/Water 50%/Labrasol® 5%, 0% propyleneglycol, read-out: Solubility of l'nomegestrol acetate
  solubility: 9400 µg/mL
[2]; ethanol/water/propyleneglycol solvent mixture, aqueous with cosolvent or surfactant or cyclodextrin, System III (Ethanol 95° 45%/Demineralized water 55%), 2% propyleneglycol, read-out: Solubilities
  solubility: 5100 µg/mL
[2]; ethanol/water/propyleneglycol ternary mixture, aqueous with cosolvent or surfactant or cyclodextrin, System I (Ethanol 95° 30%/Demineralized water 70%), 0% propyleneglycol, read-out: Solubilities
  solubility: 600 µg/mL
[2]; ethanol/water/propyleneglycol ternary mixture, aqueous with cosolvent or surfactant or cyclodextrin, System I (Ethanol 95° 30%/Demineralized water 70%), 4% propyleneglycol, read-out: Solubilities
  solubility: 500 µg/mL
[2]; ethanol/water/propyleneglycol ternary mixture, aqueous with cosolvent or surfactant or cyclodextrin, System I (Ethanol 95° 30%/Demineralized water 70%), 6% propyleneglycol, read-out: Solubilities
  solubility: 700 µg/mL
[2]; ethanol/water/propyleneglycol ternary mixture, aqueous with cosolvent or surfactant or cyclodextrin, System I (Ethanol 95° 30%/Demineralized water 70%), 8% propyleneglycol, read-out: Solubilities
  solubility: 1000 µg/mL
[2]; ethanol/water/propyleneglycol ternary mixture, aqueous with cosolvent or surfactant or cyclodextrin, System I (Ethanol 95° 30%/Demineralized water 70%), 12% propyleneglycol, read-out: Solubilities
  solubility: 1100 µg/mL
[2]; ethanol/water/propyleneglycol ternary mixture, aqueous with cosolvent or surfactant or cyclodextrin, System I (Ethanol 95° 30%/Demineralized water 70%), 20% propyleneglycol, read-out: Solubilities
  solubility: 1500 µg/mL
[2]; ethanol/water/propyleneglycol ternary mixture, aqueous with cosolvent or surfactant or cyclodextrin, System II (Ethanol 95° 40%/Demineralized water 60%), 0% propyleneglycol, read-out: Solubilities
  solubility: 2900 µg/mL
[2]; ethanol/water/propyleneglycol ternary mixture, aqueous with cosolvent or surfactant or cyclodextrin, System II (Ethanol 95° 40%/Demineralized water 60%), 4% propyleneglycol, read-out: Solubilities
  solubility: 2600 µg/mL
[2]; ethanol/water/propyleneglycol ternary mixture, aqueous with cosolvent or surfactant or cyclodextrin, System II (Ethanol 95° 40%/Demineralized water 60%), 8% propyleneglycol, read-out: Solubilities
  solubility: 3200 µg/mL
[2]; ethanol/water/propyleneglycol ternary mixture, aqueous with cosolvent or surfactant or cyclodextrin, System II (Ethanol 95° 40%/Demineralized water 60%), 20% propyleneglycol, read-out: Solubilities
  solubility: 3900 µg/mL
[2]; ethanol/water/propyleneglycol ternary mixture, aqueous with cosolvent or surfactant or cyclodextrin, System III (Ethanol 95° 45%/Demineralized water 55%), 0% propyleneglycol, read-out: Solubilities
  solubility: 5100 µg/mL
[2]; ethanol/water/propyleneglycol ternary mixture, aqueous with cosolvent or surfactant or cyclodextrin, System III (Ethanol 95° 45%/Demineralized water 55%), 4% propyleneglycol, read-out: Solubilities
  solubility: 5100 µg/mL
[2]; ethanol/water/propyleneglycol ternary mixture, aqueous with cosolvent or surfactant or cyclodextrin, System III (Ethanol 95° 45%/Demineralized water 55%), 6% propyleneglycol, read-out: Solubilities
  solubility: 5100 µg/mL
[2]; ethanol/water/propyleneglycol ternary mixture, aqueous with cosolvent or surfactant or cyclodextrin, System III (Ethanol 95° 45%/Demineralized water 55%), 20% propyleneglycol, read-out: Solubilities
  solubility: 7900 µg/mL
[3]; [4]
  area under the curve from 0 to 48 hours: 18.43±2.091 ng/ml per h
  maximum concentration (plasma): 0.65 ± 0.073 ng/mL
[3]; daily application
  state of equilibrium obtained: after the 3rd day of treatment
[3]; female, human, plasma, topical, 4 mg, 72 hours after the last application, read-out: plasma level
  concentration at 72 h: 0.19 ± 0.027 ng/mL
[3]; [5]
  area under the curve from 0 to 48 hours: 6.08±0.775 ng/ml per h
  maximum concentration (plasma): 0.25 ± 0.027 ng/mL
